# Measurements as given in patent US9174994B2, “Enhanced treatment regimens using mTor inhibitors” (INTELLIKINE LLC, priority 2011, dated 2015).
# Test: Phase I clinical trial: treatment-emergent adverse events (patients, n (%)), dose limiting toxicity, MTD
# Type: in vivo
# Description: Safety, maximum tolerated dose (MTD), pharmacokinetics (PK) and preliminary antitumor activity were evaluated.
# Pharmacodynamic (PD) endpoints were evaluated in surrogate (peripheral blood cells [PBCs], skin) and tumor tissues for the phosphorylation of TORC1-dependent markers (4EBP1/S6), and TORC2-dependent markers (AKT/PRAS40).
structure (smiles),measurement,setting,value
CC(C)n1nc(-c2ccc3oc(N)nc3c2)c2c(N)ncnc21 [compound A],Anaemia,2 mg/day (N = 3),0 (0%)
same,Asthenia,2 mg/day (N = 3),0 (0%)
same,Blood creatinine increased,2 mg/day (N = 3),0 (0%)
same,Coagulopathy,2 mg/day (N = 3),0 (0%)
same,Confusional state,2 mg/day (N = 3),0 (0%)
same,Cough,2 mg/day (N = 3),0 (0%)
same,Decreased appetite,2 mg/day (N = 3),1 (33%)
same,Dehydration,2 mg/day (N = 3),0 (0%)
same,Diarrhoea,2 mg/day (N = 3),0 (0%)
same,Dizziness,2 mg/day (N = 3),0 (0%)
same,Dry mouth,2 mg/day (N = 3),1 (33%)
same,Dry skin,2 mg/day (N = 3),0 (0%)
same,Dysgeusia,2 mg/day (N = 3),2 (67%)
same,Dyspepsia,2 mg/day (N = 3),1 (33%)
same,Dyspnoea,2 mg/day (N = 3),0 (0%)
same,Dyspnoea exertional,2 mg/day (N = 3),0 (0%)
same,Eye infection,2 mg/day (N = 3),0 (0%)
same,Fatigue,2 mg/day (N = 3),1 (33%)
same,Gastritis,2 mg/day (N = 3),0 (0%)
same,Gravitational oedema,2 mg/day (N = 3),0 (0%)
same,Hypercholesterolaemia,2 mg/day (N = 3),0 (0%)
same,Hyperglycaemia,2 mg/day (N = 3),2 (67%)
same,Hypocalcaemia,2 mg/day (N = 3),0 (0%)
same,Insomnia,2 mg/day (N = 3),0 (0%)
same,Lymphopenia,2 mg/day (N = 3),0 (0%)
same,Mucosal inflammation,2 mg/day (N = 3),0 (0%)
same,Muscle spasms,2 mg/day (N = 3),0 (0%)
same,Nausea,2 mg/day (N = 3),1 (33%)
same,Orthostatic hypotension,2 mg/day (N = 3),0 (0%)
same,Panniculitis,2 mg/day (N = 3),0 (0%)
same,Patients Reporting at Least One Related TEAE,2 mg/day (N = 3),3 (100%)
same,Polyuria,2 mg/day (N = 3),0 (0%)
same,Pruritus,2 mg/day (N = 3),0 (0%)
same,Rash,2 mg/day (N = 3),1 (33%)
same,Skin discolouration,2 mg/day (N = 3),0 (0%)
same,Skin exfoliation,2 mg/day (N = 3),0 (0%)
same,Thrombocytopenia,2 mg/day (N = 3),0 (0%)
same,Vomiting,2 mg/day (N = 3),0 (0%)
same,Weight decreased,2 mg/day (N = 3),0 (0%)
same,Anaemia,4 mg/day (N = 7),0 (0%)
same,Asthenia,4 mg/day (N = 7),0 (0%)
same,Blood creatinine increased,4 mg/day (N = 7),1 (14%)
same,Coagulopathy,4 mg/day (N = 7),0 (0%)
same,Confusional state,4 mg/day (N = 7),0 (0%)
same,Cough,4 mg/day (N = 7),0 (0%)
same,Decreased appetite,4 mg/day (N = 7),1 (14%)
same,Dehydration,4 mg/day (N = 7),0 (0%)
same,Diarrhoea,4 mg/day (N = 7),0 (0%)
same,Dizziness,4 mg/day (N = 7),0 (0%)
same,Dry mouth,4 mg/day (N = 7),1 (14%)
same,Dry skin,4 mg/day (N = 7),0 (0%)
same,Dysgeusia,4 mg/day (N = 7),3 (43%)
same,Dyspepsia,4 mg/day (N = 7),0 (0%)
same,Dyspnoea,4 mg/day (N = 7),0 (0%)
same,Dyspnoea exertional,4 mg/day (N = 7),1 (14%)
same,Eye infection,4 mg/day (N = 7),0 (0%)
same,Fatigue,4 mg/day (N = 7),2 (29%)
same,Gastritis,4 mg/day (N = 7),0 (0%)
same,Gravitational oedema,4 mg/day (N = 7),0 (0%)
same,Hypercholesterolaemia,4 mg/day (N = 7),1 (14%)
same,Hyperglycaemia,4 mg/day (N = 7),5 (71%)
same,Hypocalcaemia,4 mg/day (N = 7),0 (0%)
same,Insomnia,4 mg/day (N = 7),0 (0%)
same,Lymphopenia,4 mg/day (N = 7),1 (14%)
same,Mucosal inflammation,4 mg/day (N = 7),2 (29%)
same,Muscle spasms,4 mg/day (N = 7),0 (0%)
same,Nausea,4 mg/day (N = 7),2 (29%)
same,Orthostatic hypotension,4 mg/day (N = 7),0 (0%)
same,Panniculitis,4 mg/day (N = 7),0 (0%)
same,Patients Reporting at Least One Related TEAE,4 mg/day (N = 7),7 (100%)
same,Polyuria,4 mg/day (N = 7),1 (14%)
same,Pruritus,4 mg/day (N = 7),2 (29%)
same,Rash,4 mg/day (N = 7),3 (43%)
same,Skin discolouration,4 mg/day (N = 7),0 (0%)
same,Skin exfoliation,4 mg/day (N = 7),0 (0%)
same,Thrombocytopenia,4 mg/day (N = 7),1 (14%)
same,Vomiting,4 mg/day (N = 7),0 (0%)
same,Weight decreased,4 mg/day (N = 7),0 (0%)
same,Dose limiting toxicity,6 mg QD,Rash
same,Alanine aminotransferase increased,"6 mg/3 W, QDx3d QW (N = 3)",1 (33%)
same,Asthenia,"6 mg/3 W, QDx3d QW (N = 3)",0 (0%)
same,Catheter site inflammation,"6 mg/3 W, QDx3d QW (N = 3)",0 (0%)
same,Catheter site pain,"6 mg/3 W, QDx3d QW (N = 3)",0 (0%)
same,Decreased appetite,"6 mg/3 W, QDx3d QW (N = 3)",0 (0%)
same,Diarrhoea,"6 mg/3 W, QDx3d QW (N = 3)",0 (0%)
same,Dry skin,"6 mg/3 W, QDx3d QW (N = 3)",0 (0%)
same,Dysgeusia,"6 mg/3 W, QDx3d QW (N = 3)",0 (0%)
same,Dyspnoea,"6 mg/3 W, QDx3d QW (N = 3)",0 (0%)
same,Fatigue,"6 mg/3 W, QDx3d QW (N = 3)",0 (0%)
same,Headache,"6 mg/3 W, QDx3d QW (N = 3)",0 (0%)
same,Hyperbilirubinaemia,"6 mg/3 W, QDx3d QW (N = 3)",1 (33%)
same,Hypercholesterolaemia,"6 mg/3 W, QDx3d QW (N = 3)",0 (0%)
same,Hyperglycaemia,"6 mg/3 W, QDx3d QW (N = 3)",1 (33%)
same,Hypertransaminasaemia,"6 mg/3 W, QDx3d QW (N = 3)",0 (0%)
same,Hypertriglyceridaemia,"6 mg/3 W, QDx3d QW (N = 3)",0 (0%)
same,Hypomagnesaemia,"6 mg/3 W, QDx3d QW (N = 3)",0 (0%)
same,Hypotension,"6 mg/3 W, QDx3d QW (N = 3)",0 (0%)
same,Low fever,"6 mg/3 W, QDx3d QW (N = 3)",0 (0%)
same,Lymphopenia,"6 mg/3 W, QDx3d QW (N = 3)",0 (0%)
same,Mucosal inflammation,"6 mg/3 W, QDx3d QW (N = 3)",2 (67%)
same,Nausea,"6 mg/3 W, QDx3d QW (N = 3)",2 (67%)
same,Palmar-plantar erythrodysaesthesia syndrome,"6 mg/3 W, QDx3d QW (N = 3)",0 (0%)
same,Patients Reporting at Least One Related TEAE,"6 mg/3 W, QDx3d QW (N = 3)",3 (100%)
same,Platelet count decreased,"6 mg/3 W, QDx3d QW (N = 3)",1 (33%)
same,Pruritus,"6 mg/3 W, QDx3d QW (N = 3)",1 (33%)
same,Pyrexia,"6 mg/3 W, QDx3d QW (N = 3)",0 (0%)
same,Rash,"6 mg/3 W, QDx3d QW (N = 3)",1 (33%)
same,Rash macular,"6 mg/3 W, QDx3d QW (N = 3)",0 (0%)
same,Urinary tract infection,"6 mg/3 W, QDx3d QW (N = 3)",0 (0%)
same,Vomiting,"6 mg/3 W, QDx3d QW (N = 3)",1 (33%)
same,Asthenia,"6 mg/3 W, QDx3d QW (N = 3), 2nd Asthenia line",0 (0%)
same,Anaemia,6 mg/day (N = 7),0 (0%)
same,Asthenia,6 mg/day (N = 7),2 (29%)
same,Blood creatinine increased,6 mg/day (N = 7),1 (14%)
same,Coagulopathy,6 mg/day (N = 7),0 (0%)
same,Confusional state,6 mg/day (N = 7),0 (0%)
same,Cough,6 mg/day (N = 7),0 (0%)
same,Decreased appetite,6 mg/day (N = 7),1 (14%)
same,Dehydration,6 mg/day (N = 7),0 (0%)
same,Diarrhoea,6 mg/day (N = 7),5 (71%)
same,Dizziness,6 mg/day (N = 7),0 (0%)
same,Dry mouth,6 mg/day (N = 7),0 (0%)
same,Dry skin,6 mg/day (N = 7),0 (0%)
same,Dysgeusia,6 mg/day (N = 7),1 (14%)
same,Dyspepsia,6 mg/day (N = 7),0 (0%)
same,Dyspnoea,6 mg/day (N = 7),0 (0%)
same,Dyspnoea exertional,6 mg/day (N = 7),0 (0%)
same,Eye infection,6 mg/day (N = 7),1 (14%)
same,Fatigue,6 mg/day (N = 7),1 (14%)
same,Gastritis,6 mg/day (N = 7),0 (0%)
same,Gravitational oedema,6 mg/day (N = 7),0 (0%)
same,Hypercholesterolaemia,6 mg/day (N = 7),3 (43%)
same,Hyperglycaemia,6 mg/day (N = 7),7 (100%)
same,Hypocalcaemia,6 mg/day (N = 7),0 (0%)
same,Insomnia,6 mg/day (N = 7),1 (14%)
same,Lymphopenia,6 mg/day (N = 7),0 (0%)
same,Mucosal inflammation,6 mg/day (N = 7),2 (29%)
same,Muscle spasms,6 mg/day (N = 7),1 (14%)
same,Nausea,6 mg/day (N = 7),3 (43%)
same,Orthostatic hypotension,6 mg/day (N = 7),0 (0%)
same,Panniculitis,6 mg/day (N = 7),0 (0%)
same,Patients Reporting at Least One Related TEAE,6 mg/day (N = 7),7 (100%)
same,Polyuria,6 mg/day (N = 7),0 (0%)
same,Pruritus,6 mg/day (N = 7),5 (71%)
same,Rash,6 mg/day (N = 7),5 (71%)
same,Skin discolouration,6 mg/day (N = 7),0 (0%)
same,Skin exfoliation,6 mg/day (N = 7),0 (0%)
same,Thrombocytopenia,6 mg/day (N = 7),0 (0%)
same,Vomiting,6 mg/day (N = 7),3 (43%)
same,Weight decreased,6 mg/day (N = 7),0 (0%)
same,Diarrhoea,"7 mg/5 W, QDx5d QW (N = 3)",1 (33%)
same,Patients Reporting at Least One Related TEAE,"7 mg/5 W, QDx5d QW (N = 3)",1 (33%)
same,Rash,"7 mg/5 W, QDx5d QW (N = 3)",1 (33%)
same,Urine tract infection,"7 mg/5 W, QDx5d QW (N = 3)",0 (0%)
same,Vomiting,"7 mg/5 W, QDx5d QW (N = 3)",0 (0%)
same,Nausea,"7 mg/5 W, QDx5d QW (N = 3), 1st Nausea line",0 (0%)
same,Nausea,"7 mg/5 W, QDx5d QW (N = 3), 2nd Nausea line",1 (33%)
same,Anaemia,7 mg/day (N = 8),2 (25%)
same,Asthenia,7 mg/day (N = 8),4 (50%)
same,Blood creatinine increased,7 mg/day (N = 8),4 (50%)
same,Coagulopathy,7 mg/day (N = 8),1 (13%)
same,Confusional state,7 mg/day (N = 8),1 (13%)
same,Cough,7 mg/day (N = 8),1 (13%)
same,Decreased appetite,7 mg/day (N = 8),3 (38%)
same,Dehydration,7 mg/day (N = 8),2 (25%)
same,Diarrhoea,7 mg/day (N = 8),3 (38%)
same,Dizziness,7 mg/day (N = 8),1 (13%)
same,Dry mouth,7 mg/day (N = 8),3 (38%)
same,Dry skin,7 mg/day (N = 8),1 (13%)
same,Dysgeusia,7 mg/day (N = 8),2 (25%)
same,Dyspepsia,7 mg/day (N = 8),0 (0%)
same,Dyspnoea,7 mg/day (N = 8),1 (13%)
same,Dyspnoea exertional,7 mg/day (N = 8),0 (0%)
same,Eye infection,7 mg/day (N = 8),0 (0%)
same,Fatigue,7 mg/day (N = 8),2 (25%)
same,Gastritis,7 mg/day (N = 8),1 (13%)
same,Gravitational oedema,7 mg/day (N = 8),1 (13%)
same,Hypercholesterolaemia,7 mg/day (N = 8),1 (13%)
same,Hyperglycaemia,7 mg/day (N = 8),8 (100%)
same,Hypocalcaemia,7 mg/day (N = 8),1 (13%)
same,Insomnia,7 mg/day (N = 8),0 (0%)
same,Lymphopenia,7 mg/day (N = 8),2 (25%)
same,Mucosal inflammation,7 mg/day (N = 8),4 (50%)
same,Muscle spasms,7 mg/day (N = 8),0 (0%)
same,Nausea,7 mg/day (N = 8),3 (38%)
same,Orthostatic hypotension,7 mg/day (N = 8),1 (13%)
same,Panniculitis,7 mg/day (N = 8),1 (13%)
same,Patients Reporting at Least One Related TEAE,7 mg/day (N = 8),8 (100%)
same,Polyuria,7 mg/day (N = 8),0 (0%)
same,Pruritus,7 mg/day (N = 8),2 (25%)
same,Rash,7 mg/day (N = 8),4 (50%)
same,Skin discolouration,7 mg/day (N = 8),1 (13%)
same,Skin exfoliation,7 mg/day (N = 8),1 (13%)
same,Thrombocytopenia,7 mg/day (N = 8),3 (38%)
same,Vomiting,7 mg/day (N = 8),3 (38%)
same,Weight decreased,7 mg/day (N = 8),1 (13%)
same,ASTHENIA,7 mg/week (N = 3),0 (0%)
same,ATHENIA,7 mg/week (N = 3),0 (0%)
same,Alanine aminotransferase increased,7 mg/week (N = 3),1 (33%)
same,Aspartate aminotransferase increased,7 mg/week (N = 3),1 (33%)
same,Asthenia,7 mg/week (N = 3),0 (0%)
same,Blood creatinine increased,7 mg/week (N = 3),0 (0%)
same,Blood triglycerides increased,7 mg/week (N = 3),0 (0%)
same,DIARRHEA,7 mg/week (N = 3),0 (0%)
same,Decreased appetite,7 mg/week (N = 3),0 (0%)
same,Diarrhoea,7 mg/week (N = 3),1 (33%)
same,Dysgeusia,7 mg/week (N = 3),1 (33%)
same,Dyspepsia,7 mg/week (N = 3),0 (0%)
same,HYPERGLYCEMIA,7 mg/week (N = 3),0 (0%)
same,Hyperglycaemia,7 mg/week (N = 3),1 (33%)
same,Lymphopenia,7 mg/week (N = 3),1 (33%)
same,Malaise,7 mg/week (N = 3),0 (0%)
same,Mucosal inflammation,7 mg/week (N = 3),0 (0%)
same,Muscle spasms,7 mg/week (N = 3),0 (0%)
same,Nausea,7 mg/week (N = 3),1 (33%)
